From patent publication US9458187B2, “Methods for treatment of inflammatory conditions using S-[4-(3-fleuro-3-methylbutyryloxy)but-2-ynyl]6α, 9α-difluoro-17α-(furan-2-yl) carbonyloxy-11β-hydroxy-16α-methyl-3-oxoandrosta-1,4-diene-17β-carbothioate” (Sun Pharma Advanced Research Company Limited, priority 2013, dated 2016)
pIC50, pKi: −log10 of the molar value.

What was measured:
Progesterone receptor = target: T1, Progesterone receptor (Homo sapiens, UniProt P06401); assay: Steroidal receptor binding screen, progesterone (human)
T1 construct: host or cells: insect Sf9
T1 sequence (P06401 1-933): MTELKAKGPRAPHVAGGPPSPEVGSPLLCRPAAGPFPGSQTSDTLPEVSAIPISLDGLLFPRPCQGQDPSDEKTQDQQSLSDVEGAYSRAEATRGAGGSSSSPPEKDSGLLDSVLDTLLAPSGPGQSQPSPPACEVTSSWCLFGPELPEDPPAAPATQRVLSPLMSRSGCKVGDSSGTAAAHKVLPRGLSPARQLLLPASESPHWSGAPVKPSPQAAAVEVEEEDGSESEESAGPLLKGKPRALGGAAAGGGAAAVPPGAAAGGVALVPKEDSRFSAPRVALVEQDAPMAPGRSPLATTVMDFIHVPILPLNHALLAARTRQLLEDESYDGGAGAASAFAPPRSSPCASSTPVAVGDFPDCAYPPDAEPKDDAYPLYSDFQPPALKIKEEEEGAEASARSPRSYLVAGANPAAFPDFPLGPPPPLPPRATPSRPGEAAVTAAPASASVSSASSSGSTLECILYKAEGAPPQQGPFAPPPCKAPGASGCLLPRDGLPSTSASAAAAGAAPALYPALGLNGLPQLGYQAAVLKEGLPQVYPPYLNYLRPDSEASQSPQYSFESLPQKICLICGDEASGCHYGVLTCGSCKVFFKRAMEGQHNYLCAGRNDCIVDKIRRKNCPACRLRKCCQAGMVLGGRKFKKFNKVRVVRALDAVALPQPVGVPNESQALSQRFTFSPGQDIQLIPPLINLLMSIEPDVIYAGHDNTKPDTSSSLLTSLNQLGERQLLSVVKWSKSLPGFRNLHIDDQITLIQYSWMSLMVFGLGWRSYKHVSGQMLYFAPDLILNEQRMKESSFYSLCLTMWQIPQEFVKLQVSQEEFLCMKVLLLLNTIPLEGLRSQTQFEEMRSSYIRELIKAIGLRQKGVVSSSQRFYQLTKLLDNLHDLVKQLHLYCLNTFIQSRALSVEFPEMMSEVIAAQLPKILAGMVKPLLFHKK
Excerpt: For determination of binding to other related steroidal receptors by compound of the present invention cloned receptors from cells indicated in the parentheses were used: estrogen Erα/Erβ and progesterone (human recombinant insect Sf9), testosterone (human LnCAP) and aldosterone (Wistar rat kidney).

[1] = test system: liver glycogen deposition; assay: Liver glycogen deposition; format: in vivo, Male Sprague Dawley rats; settings: 3 mg/kg intratracheal, 2 doses 24 hrs apart, adrenalectomized rats
Method: Male Sprague Dawley rats, weighing 190-220 g were bilaterally adrenalectomized and maintained on 0.9% saline solution throughout the experiment. On day 5th and 6th of adrenalectomy, animals were made into different groups, test compounds prepared in cold saline (sonicated for 30 min) were instilled intratracheally 2 doses @3 mg/kg, 24 hrs apart. At 15 hrs after the last treatment, animals were sacrificed and livers were excised and weighed. The glycogen content of the livers was determined by anthrone method. Briefly, a weighed quantity of liver tissue was homogenized with 5% trichloroacetic acid, supernatant mixed with ethanol and kept overnight for precipitation. The glycogen thus extracted was estimated as glucose generated after acid hydrolysis by addition of anthrone reagent at 620 nm. Glycogen content was expressed as mg/100 g liver.

[2] = test system: liver glycogen deposition; assay: Liver glycogen deposition; format: in vivo, Male Sprague Dawley rats; settings: 3 mg/kg intratracheal, 2 doses 24 hrs apart, adrenalectomized rats; remark: listed apart in the source
[3] = test system: ovalbumin-induced increase in intranasal pressure; assay: Ovalbumin-induced increase in intranasal pressure; format: in vivo, guinea pigs; settings: intranasal instillation 24 hr and 2 hr prior to ovalbumin challenge; FIG. 2
Method: Animals sensitized with ovalbumin as described above were used for experiments determining intranasal pressure. Intranasal instillation of compound of formula I, fluticasone propionate or placebo was done 24 hr and 2 hr prior to challenge with ovalbumin. The nasopharynx was catheterized with a PE cannula, one end of which was attached to pressure transducer and other to the nebulizer. Ovalbumin (5%) was nebulized into the nasal cavity for 10 min. The changes in intranasal pressure were recorded for following 45 min and differential pressure (dP) was calculated.

[4] = Oral bioavailability and systemic plasma half-life; settings: in vivo
croton oil ear edema = assay: Croton oil ear edema; format: in vivo, Mice (male, CD-1); settings: 1 μg, applied to ear 2 hrs before croton oil
Method: Mice (male, CD-1) were made into different groups. A method similar to one reported in the literature was used. Test compounds were dissolved in pyridine-water-acetone (4:2:14) solution 10 μl of this solution of compound or vehicle solution was applied to the left ear of the mice. The right ear of each mouse was applied simultaneously with 10 μl of pyridine: water: acetone (4:2:14) solution. After 2 hrs of compound or vehicle application, 10 μl of croton oil solution was applied to the left ear of all animals. After 6 hr of croton oil treatment the animals were sacrificed; ears were excised and weighed separately.

[5] = test system: Seasonal Allergic Rhinitis; assay: Efficacy and safety by intranasal administration, Seasonal Allergic Rhinitis Environmental Exposure Chamber study; format: in vivo, human; settings: patients, intranasal 100, 200 or 400 μg BID, 2 weeks, versus placebo
Method: The present study was conducted to determine the efficacy and safety of the compound of the present invention via intranasal route in Seasonal Allergic Rhinitis model. This was a single-centered, randomized, double-blind, placebo-controlled parallel group study.
OBJECTIVE: The objective of the study was to assess the efficacy and safety of the compound of the present invention via intranasal route compared to placebo in alleviating the signs and symptoms of Seasonal Allergic Rhinitis in Environmental Exposure Chamber Model (EEC) after 2 weeks of treatment.
METHODS: In this study, male and female patients aged 18-65 years with history of seasonal allergic rhinitis and positive skin prick test to Dactylis glomerate within 12 months prior to screening and with TNSS score of >6 at least once during the 2 hour-screening EEC were included. Total 159 patients were included in the study and total 154 patients were considered for efficacy analysis. […]
Primary efficacy endpoint was change in TNSS (Total Nasal Symptom Score) in a 4-hour environmental challenge with Dactylis glomerate pollen in an EEC from baseline to Day 15/16. The TNSS was calculated as summation of 4 point severity scale (0=None, 1=Mild, 2=Moderate and 3=Severe) for each symptom (Nasal congestion, Rhinorrhea, Nasal itching and Sneezing). […]

SMILES: C[C@@H]1CC2C3C[C@H](F)C4=CC(=O)C=C[C@]4(C)[C@@]3(F)[C@@H](O)C[C@]2(C)[C@@]1(OC(=O)c1ccco1)C(=O)SCC#CCOC(=O)CC(C)(C)F (stereo partly drawn) [Formula I, S-[4-(3-Fluoro-3-methylbutyryloxy)but-2-ynyl]6α,9α-difluoro-17α-(furan-2-yl)carbonyloxy-11β-hydroxy-16α-methyl-3-oxoandrosta-1,4-diene-17β-carbothioate]
- pIC50 (Progesterone receptor): 8.07
- pKi (Progesterone receptor): 8.48
- Glycogen content [1]: 10.68 mg/100 g liver
- % Inhibition of thymus [2]: 26.15%
- inhibition of intranasal pressure [3]: equivalent inhibition
- systemic plasma half-life [4]: short systemic plasma half-life
- oral bioavailability ([4]; po): low oral bioavailability
- Inhibition of ear edema (%) (croton oil ear edema): 75.5%
- primary and secondary efficacy endpoints (change in TNSS, TNSS subscales, nasal secretion) [5]: statistically superior to the placebo
- safety profile (treatment-emergent adverse events) [5]: no significant difference in the safety profile
